Laboratory results as given in PubChem BioAssay AID1963968 (Molecular Pharmacology Branch, DTP, NCI, 2024).

Test system: 945468-187-T-J3-PDC spheroids with HUVEC/MSC, viability
Experiment: Anticancer human tumor 945468-187-T-J3-PDC patient-derived rectal carcinoma cell line growth inhibition [PI3K]
Conditions: for IC50: curve of first compound; for viability, T/C: stronger effect = lower value; active = viability on the fitted dose curve at most 10% of control; inactive = the rest
Text: Combinatorial screen of targeted agents with the PI3K inhibitors inavolisib, alpelisib, duvelisib, and copanlisib in multi-cell type tumor spheroids
A high-throughput screen of multi-cell type tumor spheroids was designed to identify active combinations of targeted small molecules and PI3K pathway inhibitors. Complex spheroids include a stromal component modeled by human endothelial cells (HUVEC) and fibroblasts modeled by human mesenchymal stem cells (MSCs). The concentration ranges selected for each drug and investigational agent were based upon clinically achievable concentrations if the clinical Cmax of the agent was known.
Compounds. The drugs and investigational agents: inavolisib (NSC800729), alpelisib (NSC765974), duvelisib (NSC772469), copanlisib (NSC816437), ipatasertib (NSC767898), afuresertib (NSC778305), talazoparib (NSC767125), sapanisertib (NSC764658), selumetinib (NSC741078), tovorafenib (DAY101, NSC766906), vemurafenib (NSC761431), ravoxertinib (NSC781343), sotorasib (NSC818433), MRTX1133 (NSC 836407), abemaciclib (NSC 768073), palbociclib (NSC758247), venetoclax (NSC 766270), SY5609 (NSC837396), enzalutamide (NSC755605), and darolutamide (NSC825331), were obtained from the National Cancer Institute (NCI) Developmental Therapeutics Program Chemical Repository. The FDA-approved anticancer drug set is available from the NCI Developmental Therapeutics Program. […] The stock solutions were prepared in dimethyl sulfoxide (DMSO, Sigma-Aldrich, St. Louis, MO, cat. D2650) at 800-fold the tested concentration and stored at -70 degrees C prior to their use. All drugs and investigational agents were tested over a range starting from a high concentration at or near the clinical Cmax and decreasing in half-log increments. If the clinical Cmax for an agent had not been determined, the highest concentration tested was 10 microM.
Cell Culture. All cells were maintained in an incubator at 37 degrees C and 5% CO2 with 95% humidity. The PDC lines were cultured according to standard operating procedures established by the NCI PDMR (https://pdmr.cancer.gov/sops/default.htm). All PDCs were thawed and cultured in Matrigel-coated flasks prepared with a working solution of 1X Ham's F-12 nutrient mix, without supplementation (Invitrogen, Waltham, MA, cat. 11765054), 100 U/mL penicillin-streptomycin (Invitrogen, cat. 15140122), and 2.5% Matrigel (Corning Inc., Corning, NY, cat. 354248) for the first three passages. The 354836-022-R-J1-PDC, 475296-252-R-J1-PDC, and 997726-040-R-J2-PDC lines were cultured in 6A media, which includes advanced DMEM/F-12 (Thermo Fisher Scientific, cat. 12634028), 10 mM HEPES (Thermo Fisher Scientific, cat. 15630080), 1X GlutaMAX supplement (Thermo Fisher Scientific, cat. 35050061), 0.1 mg/mL primocin (InvivoGen, San Diego, CA, cat. ant-pm-2), 10% defined fetal bovine serum, heat inactivated (HyClone Laboratories Inc., Logan, UT, cat. SH30070.03HI), 50% L-WRN conditioned media (ATCC, cat. CRL-3276), 1.25 mM N-Acetyl-L-cysteine (Sigma-Aldrich, cat. A9165), 10 mM nicotinamide (Sigma-Aldrich, cat. N0636), 1X B-27 supplement (Thermo Fisher Scientific, cat. 17504044), 1X N-2 supplement (Thermo Fisher Scientific, cat. 17502048), and 10 microM Y-27632 dihydrochloride (Tocris Bioscience, Bristol, United Kingdom, cat. 1254). The 624824-186-R-J2-PDC line was cultured in 6C/Colon 1B media, which includes all 6A media components plus 50 ng/mL human EGF recombinant protein (Thermo Fisher Scientific, cat. PHG0311). […]

[1] = second compound 0.00316 µM, first compound 0.0316 µM
[2] = second compound 0.00316 µM, first compound 0.1 µM
[3] = second compound 0.01 µM, first compound 0.0316 µM
[4] = second compound 0.01 µM, first compound 0.1 µM
[5] = second compound 0.0316 µM, first compound 0.0316 µM
[6] = second compound 0.0316 µM, first compound 0.1 µM
[7] = second compound 0.1 µM, first compound 0.0316 µM
[8] = second compound 0.1 µM, first compound 0.1 µM
[9] = second compound 0.316 µM, first compound 0.0316 µM
[10] = second compound 0.316 µM, first compound 0.1 µM
[11] = second compound 1 µM, first compound 0.0316 µM
[12] = second compound 1 µM, first compound 0.1 µM
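Also: spheroids exposed to agents for 7 days before viability read.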

CC(=O)c1c(C)c2cnc(Nc3ccc(N4CCNCC4)cn3)nc2n(C2CCCC2)c1=O + CC(Nc1ccc2c(c1)OCCn1cc(N3C(=O)OCC3C(F)F)nc1-2)C(N)=O
77.5 nM: IC50 (second compound 1 µM)
inactive: viability, T/C (second compound 0.00316 µM, first compound 0.000316 µM) 90.5% | viability, T/C (second compound 0.00316 µM, first compound 0.001 µM) 100% | viability, T/C (second compound 0.00316 µM, first compound 0.00316 µM) 94.9% | viability, T/C (second compound 0.00316 µM, first compound 0.01 µM) 99.2% | viability, T/C [1] 108% | viability, T/C [2] 110% | viability, T/C (second compound 0.01 µM, first compound 0.000316 µM) 97.6% | viability, T/C (second compound 0.01 µM, first compound 0.001 µM) 104% | viability, T/C (second compound 0.01 µM, first compound 0.00316 µM) 101% | viability, T/C (second compound 0.01 µM, first compound 0.01 µM) 110% | viability, T/C [3] 109% | viability, T/C [4] 103% | viability, T/C (second compound 0.0316 µM, first compound 0.000316 µM) 108% | viability, T/C (second compound 0.0316 µM, first compound 0.001 µM) 104% | viability, T/C (second compound 0.0316 µM, first compound 0.00316 µM) 92.8% | viability, T/C (second compound 0.0316 µM, first compound 0.01 µM) 116% | viability, T/C [5] 101% | viability, T/C [6] 123% | viability, T/C (second compound 0.1 µM, first compound 0.000316 µM) 110% | viability, T/C (second compound 0.1 µM, first compound 0.001 µM) 111% | viability, T/C (second compound 0.1 µM, first compound 0.00316 µM) 104% | viability, T/C (second compound 0.1 µM, first compound 0.01 µM) 118% | viability, T/C [7] 115% | viability, T/C [8] 119% | viability, T/C (second compound 0.316 µM, first compound 0.000316 µM) 118% | viability, T/C (second compound 0.316 µM, first compound 0.001 µM) 100% | viability, T/C (second compound 0.316 µM, first compound 0.00316 µM) 90.1% | viability, T/C (second compound 0.316 µM, first compound 0.01 µM) 101% | viability, T/C [9] 104% | viability, T/C [10] 81.5% | viability, T/C (second compound 1 µM, first compound 0.000316 µM) 83.1% | viability, T/C (second compound 1 µM, first compound 0.001 µM) 67.9% | viability, T/C (second compound 1 µM, first compound 0.00316 µM) 64.7% | viability, T/C (second compound 1 µM, first compound 0.01 µM) 80.6% | viability, T/C [11] 74.8% | viability, T/C [12] 43.2%
> 100 nM: IC50 (second compound 0.00316 µM) | IC50 (second compound 0.01 µM) | IC50 (second compound 0.0316 µM) | IC50 (second compound 0.1 µM) | IC50 (second compound 0.316 µM)

CNC(=O)c1ccc(N2C(=S)N(c3ccc(C#N)c(C(F)(F)F)c3)C(=O)C2(C)C)cc1F + CC(Nc1ccc2c(c1)OCCn1cc(N3C(=O)OCC3C(F)F)nc1-2)C(N)=O
> 10000 nM: IC50 (second compound 0.00316 µM) | IC50 (second compound 0.01 µM) | IC50 (second compound 0.0316 µM) | IC50 (second compound 0.1 µM) | IC50 (second compound 0.316 µM) | IC50 (second compound 1 µM)
inactive: viability, T/C [1] 92.4% | viability, T/C [2] 108% | viability, T/C (second compound 0.00316 µM, first compound 0.316 µM) 109% | viability, T/C (second compound 0.00316 µM, first compound 1 µM) 108% | viability, T/C (second compound 0.00316 µM, first compound 3.16 µM) 132% | viability, T/C (second compound 0.00316 µM, first compound 10 µM) 103% | viability, T/C [3] 105% | viability, T/C [4] 124% | viability, T/C (second compound 0.01 µM, first compound 0.316 µM) 115% | viability, T/C (second compound 0.01 µM, first compound 1 µM) 129% | viability, T/C (second compound 0.01 µM, first compound 3.16 µM) 111% | viability, T/C (second compound 0.01 µM, first compound 10 µM) 108% | viability, T/C [5] 110% | viability, T/C [6] 118% | viability, T/C (second compound 0.0316 µM, first compound 0.316 µM) 111% | viability, T/C (second compound 0.0316 µM, first compound 1 µM) 126% | viability, T/C (second compound 0.0316 µM, first compound 3.16 µM) 109% | viability, T/C (second compound 0.0316 µM, first compound 10 µM) 111% | viability, T/C [7] 121% | viability, T/C [8] 108% | viability, T/C (second compound 0.1 µM, first compound 0.316 µM) 125% | viability, T/C (second compound 0.1 µM, first compound 1 µM) 128% | viability, T/C (second compound 0.1 µM, first compound 3.16 µM) 126% | viability, T/C (second compound 0.1 µM, first compound 10 µM) 109% | viability, T/C [9] 124% | viability, T/C [10] 104% | viability, T/C (second compound 0.316 µM, first compound 0.316 µM) 108% | viability, T/C (second compound 0.316 µM, first compound 1 µM) 115% | viability, T/C (second compound 0.316 µM, first compound 3.16 µM) 121% | viability, T/C (second compound 0.316 µM, first compound 10 µM) 108% | viability, T/C [11] 79.8% | viability, T/C [12] 63.1% | viability, T/C (second compound 1 µM, first compound 0.316 µM) 72.7% | viability, T/C (second compound 1 µM, first compound 1 µM) 81.1% | viability, T/C (second compound 1 µM, first compound 3.16 µM) 94.5% | viability, T/C (second compound 1 µM, first compound 10 µM) 94.3%
